Results taken from patent publication US12398120B2, “Substituted hydantoinamides as ADAMTS7 antagonists” (BAYER AKTIENGESELLSCHAFT, priority 2019, dated 2025).

These compounds were tested against ADAMTS4 (Homo sapiens (Human), UniProt O75173) (assay: Selectivity assay for ADAMTS-7 modulators: ADAMTS4 (FRET substrate)). Conditions: ADAMTS4 (R&D 4307-AD) 50 nM, substrate Dabcyl-EEVKAKVQPY-Glu(Edans)-NH2 1 μM, 120 min, 32° C.
Assay type: biochemical
In short: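 Activity read as rising fluorescence after a FRET substrate is cleaved by human ADAMTS4, with reactions started by substrate addition to wells holding compound or DMSO. Percent inhibition plotted against concentration gave IC50.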

ADAMTS4, sequence (O75173 213-685): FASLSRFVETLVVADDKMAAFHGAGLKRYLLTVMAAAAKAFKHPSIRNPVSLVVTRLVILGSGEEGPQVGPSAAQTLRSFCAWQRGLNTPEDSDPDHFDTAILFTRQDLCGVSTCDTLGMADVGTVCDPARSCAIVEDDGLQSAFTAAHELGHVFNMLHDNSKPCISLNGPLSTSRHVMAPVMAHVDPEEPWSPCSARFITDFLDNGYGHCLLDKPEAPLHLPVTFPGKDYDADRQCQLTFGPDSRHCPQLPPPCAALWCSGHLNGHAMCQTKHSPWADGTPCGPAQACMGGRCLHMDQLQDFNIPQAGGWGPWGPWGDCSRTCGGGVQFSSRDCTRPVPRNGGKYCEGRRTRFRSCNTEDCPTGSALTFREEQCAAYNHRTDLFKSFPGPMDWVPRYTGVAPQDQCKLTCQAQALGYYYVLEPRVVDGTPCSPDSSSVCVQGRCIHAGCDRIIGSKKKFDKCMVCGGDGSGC

Compared with CCC(C)C1(CNC(=O)c2ccccc2-c2ccc(C(F)(F)F)cc2)NC(=O)NC1=O (stereo not shown) [Example 38, Diamix-N-[(4-Sec-Butyl-2,5-Dioxoimidazolidin-4-Yl)Methyl]-4′-(Trifluoromethyl)[Biphenyl]-2-Carboxamide], CCCC1(CNC(=O)c2ccccc2-c2ccc(C(F)(F)F)cc2)NC(=O)NC1=O (racemic) [Example 24, Rac-N-[(2,5-Dioxo-4-Propylimidazolidin-4-Yl)Methyl]-4′-(Trifluoromethyl)[Biphenyl]-2-Carboxamide] is higher in IC50: 21 µM for the first, > 50 µM for the second.

Going from Cc1cccc(C(=O)NC[C@@]2(C3CC3)NC(=O)NC2=O)c1-c1ccc(C(F)(F)F)cc1 [Example 109, N-{[(4R)-4-Cyclopropyl-2,5-Dioxoimidazolidin-4-Yl]Methyl}-6-Methyl-4′-(Trifluoromethyl)[Biphenyl]-2-Carboxamide] to Cc1ccc(C(=O)NC[C@@]2(C3CC3)NC(=O)NC2=O)c(-c2ccc(C(F)(F)F)cc2)c1C [Example 145, N-{[(4R)-4-Cyclopropyl-2,5-Dioxoimidazolidin-4-Yl]Methyl}-5,6-Dimethyl-4′-(Trifluoromethyl)[1,1′-Biphenyl]-2-Carboxamide], the IC50 falls from 8.7 µM to 2.8 µM (3.1-fold).

Cc1ccc(-c2cc(C(F)(F)F)ccc2C(=O)NC[C@@]2(C3CC3)NC(=O)NC2=O)cc1 [Example 99, N-{[(4R)-4-Cyclopropyl-2,5-Dioxoimidazolidin-4-Yl]Methyl}-4′-Methyl-5-(Trifluoromethyl)[Biphenyl]-2-Carboxamide] and Cc1ccc(-c2cc(C)ccc2C(=O)NC[C@@]2(C3CC3)NC(=O)NC2=O)cc1 [Example 22, N-{[(4R)-4-Cyclopropyl-2,5-Dioxoimidazolidin-4-Yl]Methyl}-4′,5-Dimethyl[Biphenyl]-2-Carboxamide] are within 1.5-fold of each other in IC50: 4.5 µM for the first, 3.9 µM for the second.

First: Cc1conc1C1(CNC(=O)c2ccccc2-c2ccc(C(F)(F)F)cc2)NC(=O)NC1=O (racemic) [Example 44, Rac-N-{[4-(4-Methyl-1,2-Oxazol-3-Yl)-2,5-Dioxoimidazolidin-4-Yl]Methyl}-4′-(Trifluoromethyl)[Biphenyl]-2-Carboxamide]
Second: Cc1nonc1C1(CNC(=O)c2ccccc2-c2ccc(C(F)(F)F)cc2)NC(=O)NC1=O (racemic) [Example 32, Rac-N-{[4-(4-Methyl-1,2,5-Oxadiazol-3-Yl)-2,5-Dioxoimidazolidin-4-Yl]Methyl}-4′-(Trifluoromethyl)[Biphenyl]-2-Carboxamide]
The IC50 of the first is 3.2-fold lower: 11 µM for the first, 35 µM for the second.

First: O=C1NC(=O)C(CNC(=O)c2ccccc2-c2ccc(C(F)(F)F)cc2)(c2ccnn2CC(F)(F)F)N1 (stereo not drawn) [Example 28, Ent-N-({2,5-Dioxo-4-[1-(2,2,2-Trifluoroethyl)-1H-Pyrazol-5-Yl]Imidazolidin-4-Yl}Methyl)-4′-(Trifluoromethyl)[Biphenyl]-2-Carboxamide]
Second: CCn1nccc1C1(CNC(=O)c2ccccc2-c2ccc(C(F)(F)F)cc2)NC(=O)NC1=O (stereo not drawn) [Example 80, Ent-N-{[4-(1-Ethyl-1H-Pyrazol-5-Yl)-2,5-Dioxoimidazolidin-4-Yl]Methyl}-4′-(Trifluoromethyl)[Biphenyl]-2-Carboxamide]
The IC50 of the first is 1.9-fold higher: 11 µM for the first, 5.73 µM for the second.

Cn1nccc1C1(CNC(=O)c2ccc(F)cc2-c2ccc(Cl)cc2)NC(=O)NC1=O (single isomer, unassigned; ent-4) [Example 180, Ent-4′-Chloro-5-Fluoro-N-{[4-(1-Methyl-1H-Pyrazol-5-Yl)-2,5-Dioxoimidazolidin-4-Yl]Methyl}[Biphenyl]-2-Carboxamide] and Cn1nccc1C1(CNC(=O)c2ccccc2-c2ccc(Cl)cc2)NC(=O)NC1=O (racemic) [Example 181, Rac-4′-Chloro-N-{[4-(1-Methyl-1H-Pyrazol-5-Yl)-2,5-Dioxoimidazolidin-4-Yl]Methyl}[Biphenyl]-2-Carboxamide] are within 1.5-fold of each other in IC50: 17.8 µM for the first, 12 µM for the second.

Compared with Cc1cc(C2(CNC(=O)c3ccc(F)c(F)c3-c3ccc(C(F)(F)F)cc3)NC(=O)NC2=O)nn1C (racemic) [Example 305, Rac-N-{[4-(1,5-Dimethyl-1H-Pyrazol-3-Yl)-2,5-Dioxoimidazolidin-4-Yl]Methyl}-5,6-Difluoro-4′-(Trifluoromethyl)[Biphenyl]-2-Carboxamide], Cc1c(C2(CNC(=O)c3ccc(F)cc3-c3ccc(C(F)(F)F)cc3)NC(=O)NC2=O)ncn1C (racemic) [Example 304, Rac-N-{[4-(1,5-Dimethyl-1H-Imidazol-4-Yl)-2,5-Dioxoimidazolidin-4-Yl]Methyl}-5-Fluoro-4′-(Trifluoromethyl)[Biphenyl]-2-Carboxamide] is 8.5-fold lower in IC50: 28 µM for the first, 3.3 µM for the second. The second is the more potent here.

Going from O=C1NC(=O)[C@](CNC(=O)c2ccncc2-c2ccc(C(F)(F)F)cc2)(C2CC2)N1 [Example 83, N-{[(4R)-4-Cyclopropyl-2,5-Dioxoimidazolidin-4-Yl]Methyl}-3-[4-(Trifluoromethyl)Phenyl]Pyridine-4-Carboxamide] to O=C1NC(=O)C(CNC(=O)c2ccccc2-c2ccc(C(F)(F)F)cc2)(C2CCC2)N1 (stereo not drawn) [Example 237, Ent-N-[(4-Cyclobutyl-2,5-Dioxoimidazolidin-4-Yl)Methyl]-4′-(Trifluoromethyl)[Biphenyl]-2-Carboxamide], the IC50 rises from 36 µM to > 50 µM. The first is the more potent here.

Compared with O=C1NC(=O)[C@](CNC(=O)c2ccc(F)cc2-c2ccc(C(F)(F)F)nc2)(C2CC2)N1 [Example 290, N-{[(4R)-4-Cyclopropyl-2,5-Dioxoimidazolidin-4-Yl]Methyl}-4-Fluoro-2-[6-(Trifluoromethyl)Pyridin-3-Yl]Benzamide], O=C1NC(=O)[C@](CNC(=O)c2ccc(F)cc2-c2ccc(F)cc2)(C2CC2)N1 [Example 128, N-{[(4R)-4-Cyclopropyl-2,5-Dioxoimidazolidin-4-Yl]Methyl}-4′,5-Difluoro[Biphenyl]-2-Carboxamide] is 1.6-fold lower in IC50: 21 µM for the first, 13 µM for the second.

First: Cn1nccc1C1(CNC(=O)c2cc(F)ccc2-c2ccc(C(F)(F)F)cc2)NC(=O)NC1=O (single isomer, unassigned; ent-4) [Example 178, Ent-4-Fluoro-N-{[4-(1-Methyl-1H-Pyrazol-5-Yl)-2,5-Dioxoimidazolidin-4-Yl]Methyl}-4′-(Trifluoromethyl)[Biphenyl]-2-Carboxamide]
Second: O=C1NC(=O)C(CNC(=O)c2ccccc2-c2ccc(C(F)(F)F)cc2)(c2ccnn2C(F)F)N1 (stereo not drawn) [Example 261, Ent-N-({4-[1-(Difluoromethyl)-1H-Pyrazol-5-Yl]-2,5-Dioxoimidazolidin-4-Yl}Methyl)-4′-(Trifluoromethyl)[Biphenyl]-2-Carboxamide]
The IC50 of the first is lower: 5.37 µM for the first, > 50 µM for the second.

Cc1ccc(-c2ccccc2C(=O)NCC2(C(C)C)NC(=O)NC2=O)cc1 (racemic) [Example 204, Rac-N-[(4-Isopropyl-2,5-Dioxoimidazolidin-4-Yl)Methyl]-4′-Methyl[Biphenyl]-2-Carboxamide] and N#Cc1ccc(-c2ccccc2C(=O)NC[C@@]2(C3CC3)NC(=O)NC2=O)cc1 [Example 223, 4′-Cyano-N-{[(4R)-4-Cyclopropyl-2,5-Dioxoimidazolidin-4-Yl]Methyl}[1,1′-Biphenyl]-2-Carboxamide] are within 1.5-fold of each other in IC50: 22 µM for the first, 26 µM for the second.

Compared with Cc1ccc(-c2ccccc2C(=O)NC[C@@]2(C3CC3)NC(=O)NC2=O)cc1F [Example 221, N-{[(4R)-4-Cyclopropyl-2,5-Dioxoimidazolidin-4-Yl]Methyl}-3′-Fluoro-4′-Methyl[1,1′-Biphenyl]-2-Carboxamide], O=C1NC(=O)[C@](CNC(=O)c2cc(F)ccc2-c2ccc(Cl)c(Cl)c2)(C2CC2)N1 [Example 234, 3′,4′-Dichloro-N-{[(4R)-4-Cyclopropyl-2,5-Dioxoimidazolidin-4-Yl]Methyl}-4-Fluoro[1,1′-Biphenyl]-2-Carboxamide] is 2-fold higher in IC50: 8.1 µM for the first, 16 µM for the second. The first is the more potent here.

Going from O=C1NC(=O)C(CNC(=O)c2ccccc2-c2ccc(C(F)(F)F)cc2)(c2ncccc2C(F)(F)F)N1 (racemic) [Example 243, Rac-N-({2,5-Dioxo-4-[3-(Trifluoromethyl)Pyridin-2-Yl]Imidazolidin-4-Yl}Methyl)-4′-(Trifluoromethyl)[Biphenyl]-2-Carboxamide] to O=C1NC(=O)C(CNC(=O)c2ccccc2-c2ccc(Cl)cc2)(c2ncccc2C(F)(F)F)N1 (racemic) [Example 242, Rac-4′-Chloro-N-({2,5-Dioxo-4-[3-(Trifluoromethyl)Pyridin-2-Yl]Imidazolidin-4-Yl}Methyl)[Biphenyl]-2-Carboxamide], the IC50 falls from 45 µM to 29 µM (1.6-fold).

Going from O=C1NC(=O)C(CNC(=O)c2ccccc2-c2ccc(C(F)(F)F)cc2)(c2ccnn2CC(F)(F)F)N1 (racemic) [Example 6, Rac-N-({2,5-Dioxo-4-[1-(2,2,2-Trifluoroethyl)-1H-Pyrazol-5-Yl]Imidazolidin-4-Yl}Methyl)-4′-(Trifluoromethyl)[Biphenyl]-2-Carboxamide] to Cc1nsnc1C1(CNC(=O)c2ccccc2-c2ccc(C(F)(F)F)nc2)NC(=O)NC1=O (stereo not drawn) [Example 91, Ent-N-{[4-(4-Methyl-1,2,5-Thiadiazol-3-Yl)-2,5-Dioxoimidazolidin-4-Yl]Methyl}-2-[6-(Trifluoromethyl)Pyridin-3-Yl]Benzamide], the IC50 rises from 6.2 µM to 30 µM (4.8-fold).

First: Cc1nc(C)c(C2(CNC(=O)c3ccccc3-c3ccc(C(F)(F)F)nc3)NC(=O)NC2=O)s1 (stereo not drawn) [Example 74, Ent-N-{[4-(2,4-Dimethyl-1,3-Thiazol-5-Yl)-2,5-Dioxoimidazolidin-4-Yl]Methyl}-2-[6-(Trifluoromethyl)Pyridin-3-Yl]Benzamide]
Second: Cn1ccnc1C1(CNC(=O)c2ccc(F)cc2-c2ccc(Cl)cc2)NC(=O)NC1=O (single isomer, unassigned; ent-4) [Example 157, Ent-4′-Chloro-5-Fluoro-N-{[4-(1-Methyl-1H-Imidazol-2-Yl)-2,5-Dioxoimidazolidin-4-Yl]Methyl}[Biphenyl]-2-Carboxamide]
The IC50 of the first is 1.7-fold higher: 5.2 µM for the first, 3 µM for the second.

Same assay, conditions: ADAMTS4 (R&D 4307-AD) 50 nM, substrate Dabcyl-[…]-Glu(Edans)-NH2 1 μM, 120 min, 32° C.

For Cc1scnc1C1(CNC(=O)c2ccc(F)cc2-c2ccc(C(F)(F)F)cc2)NC(=O)NC1=O (single isomer, unassigned; ent-5) [Example 176, Ent-5-Fluoro-N-{[4-(5-Methyl-1,3-Thiazol-4-Yl)-2,5-Dioxoimidazolidin-4-Yl]Methyl}-4′-(Trifluoromethyl)[Biphenyl]-2-Carboxamide], the IC50 was 4.13 µM.
